Test in all cases: growth of human tumour cells (NCI), 48 h
Experiment [1] relates to OVCAR-8 ovarian.
The subject of experiment [2] is HOP-62 NSCLC.
For experiment [3], the system named is KM12 colon.
Experiment [4] concerns SF-268 CNS.
Experiment [5] deals with MDA-N.
The subject of experiment [6] is HL-60(TB) leukemia.
Experiment [7] deals with OVCAR-3 ovarian.
Experiment [8] relates to UO-31 renal.
The test system of experiment [9] is SK-OV-3 ovarian.
The test system of experiment [10] is HCT-116 colon.
Experiment [11] concerns CAKI-1 renal.
The test system of experiment [12] is MDA-MB-231 breast.
In experiment [13] the test system is SK-MEL-2 melanoma.
For experiment [14], the system named is U251 CNS.
The test system of experiment [15] is HOP-92 NSCLC.
In experiment [16] the test system is CCRF-CEM leukemia.

Our source for the TGI values is PubChem BioAssay (NCI).

SMILES strings stand for the structures.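 Cultured in 96-well plates, cells were exposed to test compound for 48 hours across five concentrations. TGI marks complete inhibition of growth.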 A value given as a limit tells only on which side of the number the result lay.

For `N#C/C(=C\N1CCNC1=S)C(=O)c1ccc2ccccc2c1`, the TGI in [1], in [2], in experiment [3], in experiment [4], in experiment [5] and in experiment [6] was greater than 100 µM each time. Also, the TGI in experiment [7], in experiment [8], in experiment [9], in experiment [10], in [11] and in [12] was greater than 100 µM each time. Moreover, the TGI in experiment [13], in experiment [14] and in [15] was greater than 100 µM in each case.

As to `Cc1ccc(-c2n[nH]c(=O)n2N)cc1`, the TGI in [16], in [1], in experiment [2], in experiment [3], in [4] and in experiment [5] was greater than 100 µM each time. Also, the TGI in experiment [6], in [7], in experiment [8], in experiment [9], in experiment [10] and in [11] was greater than 100 µM each time. Further, the TGI in experiment [12], in experiment [13], in experiment [14] and in experiment [15] was greater than 100 µM throughout.

Turning to `CNC(=S)N/N=C(\C)c1ccc(OC)cc1O`, the TGI in experiment [16], in [1], in [2], in experiment [3], in [4] and in [5] was greater than 100 µM throughout. The TGI in experiment [6], in [7], in [8], in experiment [9], in experiment [10] and in [11] was greater than 100 µM each time. Also, the TGI in [12], in experiment [13], in experiment [14] and in experiment [15] was greater than 100 µM in each case.

Turning to `CC(C)Nc1n[nH]c(=O)n1C(C)C`, the TGI in experiment [16], in [1], in experiment [2], in experiment [3], in experiment [4] and in experiment [5] was greater than 100 µM in each case. Besides, the TGI in experiment [6], in experiment [7], in [8], in [9], in experiment [10] and in [11] was greater than 100 µM in each case. Moreover, the TGI in experiment [12], in experiment [13], in [14] and in experiment [15] was greater than 100 µM in each case.

As for `COc1cccc(NC(=O)c2c(SC)n[nH]c2N)c1`, the TGI in [16], in experiment [1], in experiment [2], in experiment [3], in experiment [4] and in [5] was greater than 100 µM throughout. The TGI in [6], in experiment [9], in [10], in experiment [11], in experiment [12] and in [13] was greater than 100 µM each time. In addition, the TGI in [14] and in experiment [15] was greater than 100 µM in each case.

As to `O=c1oc2ccccc2c(O)c1C(c1ccc([N+](=O)[O-])cc1)c1c(O)c2ccccc2oc1=O`, the TGI in [16], in experiment [1], in experiment [2], in experiment [3], in experiment [4] and in experiment [5] was greater than 100 µM in each case. Besides, the TGI in [6], in experiment [7], in experiment [8], in experiment [10], in [11] and in [12] was greater than 100 µM throughout. The TGI in experiment [13], in [14] and in experiment [15] was greater than 100 µM in each case.

As for `S=c1scc(-c2ccc(Cl)cc2)n1OC1CCCC1`, the TGI was greater than 100 µM in experiment [1]; greater than 100 µM in [2]; greater than 100 µM in experiment [3]; greater than 100 µM in experiment [4]; greater than 100 µM in experiment [5]; 71.3 µM in experiment [6]. Besides, the TGI is 74.9 µM in experiment [7]; greater than 100 µM in [8]; greater than 100 µM in [9]; greater than 100 µM in experiment [10]; greater than 100 µM in [11]; greater than 100 µM in experiment [12]. The results for the TGI in experiment [13], in experiment [14] and in [15] were 44.6 µM, 39.7 µM and greater than 100 µM, respectively.

Take `Cc1nc(SCC(=O)Nc2ccccc2)c2sc(=S)n(-c3ccccc3)c2n1`: the TGI in experiment [16], in [1], in experiment [2], in [3], in experiment [4] and in [5] was greater than 10 µM in each case. Further, the TGI in experiment [6], in experiment [7], in experiment [9], in [10], in [11] and in experiment [12] was greater than 10 µM in each case. Besides, the TGI in experiment [13], in experiment [14] and in [15] was greater than 10 µM in each case.

For `Cc1ccc2c(c1)C(=O)C1(C2)Cc2ccc(C)cc2C1=O`, the TGI in experiment [16], in [1], in [2], in [4], in experiment [5] and in experiment [6] was greater than 100 µM each time. Further, the TGI in experiment [7], in experiment [8], in experiment [9], in experiment [10], in experiment [11] and in [12] was greater than 100 µM throughout. The TGI in [13], in experiment [14] and in experiment [15] was greater than 100 µM in each case.

For the compound `c1ccc(N=C2SC(c3ccccc3)CN2C23CC4CC(CC(C4)C2)C3)cc1` (configuration not stated), the TGI in experiment [16], in experiment [1], in experiment [2], in [3], in [4] and in [5] was greater than 100 µM in each case. Moreover, the TGI in [6], in experiment [7], in experiment [8], in experiment [10], in experiment [11] and in experiment [12] was greater than 100 µM in each case. Also, the TGI in [13], in [14] and in [15] was greater than 100 µM each time.

As to `Cc1c2ccccc2nc2[nH]c3ccncc3c12`, the TGI was 10.9 µM in experiment [16]; greater than 100 µM in experiment [1]; 62 µM in experiment [2]; greater than 100 µM in experiment [3]; 32.8 µM in experiment [4]; greater than 100 µM in experiment [5]. Also, the TGI in experiment [6] is greater than 100 µM; in experiment [7] it was 91.9 µM; in [8], greater than 100 µM; in [9], greater than 100 µM; in [11], 96.7 µM; in experiment [12], greater than 100 µM. In addition, the TGI was greater than 100 µM in experiment [13], greater than 100 µM in experiment [14] and 79.6 µM in experiment [15].

`CN(C)c1ncc(-c2c[nH]c3ccccc23)nc1-c1c[nH]c2ccccc12`: the TGI in experiment [1] is 23 µM; in experiment [2], 22 µM; in experiment [3], 5.3 µM; in [4], 25 µM; in experiment [5] it was 4.54 µM; in [6], greater than 100 µM. Also, the TGI in [7] stood at 18.6 µM; in experiment [8] it was 13.3 µM; in experiment [9] it was 20.4 µM; in experiment [10] it was 12 µM; in [11], 11 µM; in experiment [12], 4.62 µM. Further, the TGI in experiment [13] amounted to 12.8 µM; in [14], 11.4 µM; in experiment [15] it was 8.33 µM.

Regarding `COc1cc(CSc2ccc(O)cc2)cc(O)c1O`, the TGI in [16] was 87 µM; in experiment [1] it was 58.2 µM; in [2], greater than 100 µM; in experiment [3], 91.9 µM; in [4] it was 95.9 µM; in [5] it was greater than 100 µM. In addition, the TGI in [6] is greater than 100 µM; in experiment [7], 67.6 µM; in [8] it was greater than 100 µM; in [10], 49.7 µM; in experiment [11] it was 91.2 µM; in experiment [12] it was 73.5 µM. Further, the TGI was 79.1 µM in experiment [13], greater than 100 µM in experiment [14] and 50.4 µM in experiment [15].

As to `N=c1nc(N)nc(N)n1-c1ccc(S(N)(=O)=O)cc1`, the TGI in [16], in experiment [1], in [2], in [3], in experiment [4] and in experiment [5] was greater than 100 µM throughout. The TGI in experiment [6], in experiment [7], in experiment [8], in experiment [10], in experiment [11] and in experiment [12] was greater than 100 µM throughout. Moreover, the TGI in [13], in [14] and in experiment [15] was greater than 100 µM each time.

On to `O=C(C1=CCC2(CC1)OCCO2)N(Cc1ccccc1)c1ccccc1I`, for which the TGI is 30.1 µM in [1]; 43.3 µM in experiment [2]; 29.5 µM in experiment [3]; 27.9 µM in experiment [4]; 96.4 µM in experiment [5]; greater than 100 µM in experiment [6]. In addition, the TGI in experiment [7] was determined as 38.6 µM; in experiment [8], 33.3 µM; in experiment [9] it was 88.2 µM; in [10], 37.7 µM; in experiment [11], 88.3 µM; in [12] it was 68.1 µM. Besides, the TGI was 38.7 µM in experiment [13], 48.1 µM in [14] and 43.2 µM in experiment [15].

Consider `COc1ccc(OC)c2c1C(=O)C(Cl)=C(Cl)C2=O`, for which the TGI in experiment [16] was greater than 100 µM; in [1], 18.3 µM; in experiment [3] it was 33.8 µM; in experiment [4], 27 µM; in experiment [5] it was 4.19 µM; in [6], greater than 100 µM. In addition, the TGI is 7.85 µM in experiment [7]; 6.66 µM in experiment [8]; 67.4 µM in [9]; 3.86 µM in experiment [10]; 7.99 µM in experiment [11]; 6.57 µM in experiment [12]. The results for the TGI in experiment [13], in experiment [14] and in experiment [15] were 8.73 µM, 38.9 µM and 8.14 µM, respectively.

Take `CCCCNC(=O)C1=C(C)NC(C)=C(C(=O)NCCCC)C1`: the TGI in experiment [1], in experiment [2], in experiment [3], in experiment [4], in experiment [5] and in experiment [6] was greater than 100 µM in each case. Moreover, the TGI in [7], in experiment [8], in [9], in experiment [10], in experiment [11] and in [12] was greater than 100 µM in each case. Further, the TGI in [13], in experiment [14] and in experiment [15] was greater than 100 µM each time.

Turning to `CCOC(=O)C1C(=O)CC(C)(O)C(C(=O)OCC)C1c1ccc(O)c(OC)c1` (configuration not stated), the TGI in experiment [16], in [1], in experiment [2], in [3], in [4] and in experiment [5] was greater than 100 µM throughout. Also, the TGI in experiment [6], in [7], in experiment [8], in [10], in experiment [11] and in experiment [12] was greater than 100 µM throughout. Moreover, the TGI in experiment [13], in [14] and in experiment [15] was greater than 100 µM in each case.

Regarding `C[C@@H]1O[C@@H]2OCC[C@@H]2C2=C1C(=O)c1ccccc1C2=O`, the TGI in experiment [16] was 33.8 µM; in experiment [1] it was greater than 100 µM; in experiment [2], 31.5 µM; in experiment [3] it was 30.7 µM; in experiment [4], 16.9 µM; in experiment [5], 3.35 µM. Besides, the TGI is 19.1 µM in [6]; 10.2 µM in experiment [7]; 22.8 µM in experiment [8]; 89.9 µM in experiment [9]; 29.8 µM in experiment [11]; greater than 100 µM in experiment [12]. The TGI was found to be 25.7 µM in experiment [13], 29.5 µM in [14] and 18.9 µM in [15].
